Assay results from paper PMC3858179 (Journal of medicinal chemistry, 2008).
pEC50, pIC50: −log10 of the molar value. Like-named read-outs stand apart in the source and are kept apart here.

Assays:
T. gondii DHFR [1] = biological target: T1, T. gondii DHFR (Toxoplasma gondii, UniProt Q07422); type: biochemical; conditions: 20 compounds jointly assayed, by both protocols (Table 1 and Table 2 conditions)
T1 sequence (Q07422 1-610): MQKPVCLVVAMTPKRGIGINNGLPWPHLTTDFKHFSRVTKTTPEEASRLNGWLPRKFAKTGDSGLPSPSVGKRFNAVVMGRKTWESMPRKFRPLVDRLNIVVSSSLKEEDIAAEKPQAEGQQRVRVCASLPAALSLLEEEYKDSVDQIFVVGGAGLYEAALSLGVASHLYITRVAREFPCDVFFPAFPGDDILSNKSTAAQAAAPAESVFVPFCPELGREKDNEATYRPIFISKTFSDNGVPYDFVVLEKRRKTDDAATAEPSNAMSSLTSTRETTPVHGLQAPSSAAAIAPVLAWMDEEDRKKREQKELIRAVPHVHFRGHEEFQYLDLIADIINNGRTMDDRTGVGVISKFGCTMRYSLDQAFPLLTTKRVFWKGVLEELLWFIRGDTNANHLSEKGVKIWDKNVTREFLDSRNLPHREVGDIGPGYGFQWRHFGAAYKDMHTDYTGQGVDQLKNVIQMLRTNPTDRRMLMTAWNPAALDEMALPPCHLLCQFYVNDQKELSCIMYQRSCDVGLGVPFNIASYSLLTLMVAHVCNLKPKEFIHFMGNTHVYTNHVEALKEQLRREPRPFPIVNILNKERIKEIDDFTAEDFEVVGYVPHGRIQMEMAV

[2] = system: human CCRF-CEM leukemia cells; conditions: read-out: EC50 growth of human CCRF-CEM leukemia cells in culture; cited from earlier work
E. coli TS = E. coli TS (Escherichia coli, UniProt P0A884); test: Inhibition of isolated E. coli TS; type: biochemical; conditions: for % inhibition TS E. coli (number in parenthesis): at the concentration given
Chain of E. coli TS (P0A884 whole entry): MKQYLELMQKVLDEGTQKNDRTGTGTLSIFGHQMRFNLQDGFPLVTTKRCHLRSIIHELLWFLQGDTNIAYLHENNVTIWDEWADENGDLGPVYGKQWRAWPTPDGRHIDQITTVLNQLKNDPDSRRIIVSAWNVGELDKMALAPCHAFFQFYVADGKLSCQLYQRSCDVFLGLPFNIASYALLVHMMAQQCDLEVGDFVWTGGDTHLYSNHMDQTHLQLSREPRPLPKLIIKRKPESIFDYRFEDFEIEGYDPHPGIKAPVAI

PC-3 = conditions: read-out: GI50 PC-3; Prostrate Cancer; cited from earlier work
HT29 = conditions: read-out: GI50 HT29; Colon Cancer; cited from earlier work
MCF-7 = conditions: read-out: GI50 MCF-7; Breast Cancer; cited from earlier work
K-562 = conditions: read-out: GI50 K-562; Leukemia; cited from earlier work
HCT 15 [3] = conditions: read-out: GI50 HCT 15; Colon Cancer; cited from earlier work
SF268 = conditions: read-out: GI50 SF268; Central Nervous System Cancer; cited from earlier work
[4] = system: folyl poly-γ-glutamate synthetase (FPGS); conditions: cited from earlier work
HL-60 × (TB) = conditions: read-out: GI50 HL-60 × (TB); Leukemia; cited from earlier work
RPMI-8226 = conditions: read-out: GI50 RPMI-8226; Leukemia; cited from earlier work
MOLT-4 = conditions: read-out: GI50 MOLT-4; Leukemia; cited from earlier work
60 tumor cell lines [5] = conditions: in 11 of the 60 tumor cell lines evaluated; cited from earlier work
SW-620 [6] = conditions: read-out: GI50 SW-620; Colon Cancer; cited from earlier work
CAKI-1 = conditions: read-out: GI50 CAKI-1; Renal Cancer; cited from earlier work
ACHN = conditions: read-out: GI50 ACHN; Renal Cancer; cited from earlier work
NCI-H460 = conditions: read-out: GI50 NCI-H460; Nonsmall Cell Lung Cancer; cited from earlier work
U251 = conditions: read-out: GI50 U251; Central Nervous System Cancer; cited from earlier work
CCRF-CEM = conditions: read-out: GI50 CCRF-CEM; Leukemia; cited from earlier work
SW-620 [7] = test: NCI tumor cell growth inhibition, SW-620; type: cell-based; conditions: Homo sapiens, SW-620, read-out: GI50 SW-620
T. gondii TS = T. gondii TS (Toxoplasma gondii, UniProt Q07422); type: biochemical
E. coli DHFR = E. coli DHFR (Escherichia coli, UniProt P0ABQ4); test: Inhibition of isolated E. coli DHFR; type: biochemical
Chain of E. coli DHFR (P0ABQ4 whole entry): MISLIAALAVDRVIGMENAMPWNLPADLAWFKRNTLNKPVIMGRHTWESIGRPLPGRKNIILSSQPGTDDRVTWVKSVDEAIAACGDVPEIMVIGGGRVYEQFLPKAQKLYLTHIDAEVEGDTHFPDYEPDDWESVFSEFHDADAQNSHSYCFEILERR

human TS = human TS (Homo sapiens, UniProt P04818); test: Inhibition of isolated human TS; type: biochemical
Chain of human TS (P04818 whole entry): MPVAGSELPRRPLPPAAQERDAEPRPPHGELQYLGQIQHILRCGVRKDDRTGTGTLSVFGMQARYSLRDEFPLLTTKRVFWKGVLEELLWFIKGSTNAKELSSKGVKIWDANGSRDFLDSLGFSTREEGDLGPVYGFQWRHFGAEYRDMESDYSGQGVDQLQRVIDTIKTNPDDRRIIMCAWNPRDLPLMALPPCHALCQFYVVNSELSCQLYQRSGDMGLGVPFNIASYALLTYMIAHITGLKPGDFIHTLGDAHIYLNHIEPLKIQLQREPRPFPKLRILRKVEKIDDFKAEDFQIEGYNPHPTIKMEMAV

human DHFR = biological target: T2, human DHFR (Homo sapiens, UniProt P00374); test: Inhibition of isolated human DHFR; type: biochemical
T2 sequence (P00374 1-187): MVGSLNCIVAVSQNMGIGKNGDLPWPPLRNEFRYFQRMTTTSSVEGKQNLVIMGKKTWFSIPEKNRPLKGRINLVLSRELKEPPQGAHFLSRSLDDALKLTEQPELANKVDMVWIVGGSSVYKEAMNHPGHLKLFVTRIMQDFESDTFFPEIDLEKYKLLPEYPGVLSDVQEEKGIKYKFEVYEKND

T. gondii DHFR [8] = biological target: T1, T. gondii DHFR; type: biochemical
60 tumor cell lines [9] = test: NCI in vitro preclinical antitumor screening, 60 tumor cell lines; type: cell-based
HCT 15 [10] = test: NCI tumor cell growth inhibition, HCT 15; type: cell-based; conditions: Homo sapiens, HCT-15, read-out: GI50 HCT 15

| SMILES | pIC50 (E. coli TS) | % inhibition TS E. coli (number in parenthesis) (E. coli TS) [%] | also measured |
| --- | --- | --- | --- |
| CN(Cc1cnc2nc(N)nc(N)c2n1)c1ccc(C(=O)N[C@@H](CCC(=O)O)C(=O)O)cc1 [MTX, methotrexate, reference compound] |  |  | potency rank against T. gondii DHFR, in words (T. gondii DHFR [1]): three most potent compounds; pEC50 [2]: 7.90 |
| COc1ccc(Sc2[nH]c3nc(N)nc(N)c3c2C(C)C)cc1 [Compound 22, 2,4-Diamino-5-isopropyl-6-(4′-methoxyphenylsulfanyl)-7H-pyrrolo[2,3-d]pyrimidine] | < 5.60 | 0 |  |
| CCCc1c(Sc2ccccc2)[nH]c2nc(N)nc(N)c12 [Compound 13, 2,4-Diamino-5-propyl-6-(phenylsulfanyl)-7H-pyrrolo[2,3-d]py-rimidine] | < 4.85 | 0 |  |
| CCCc1c(Sc2cc(OC)ccc2OC)[nH]c2nc(N)nc(N)c12 [Compound 15, 2,4-Diamino-5-propyl-6-(2′,5′-dimethoxyphenylsulfanyl)-7H-pyrrolo[2,3-d]pyrimidine] | < 4.92 | 0 |  |
| CCCc1c(Sc2ccc(OC)c(OC)c2)[nH]c2nc(N)nc(N)c12 [Compound 16, 2,4-Diamino-5-propyl-6-(3′,4′-dimethoxyphenylsulfanyl)-7H-pyrrolo[2,3-d]pyrimidine] | < 4.96 | 0 |  |
| Cc1c(Sc2ccc(C(=O)N[C@@H](CCC(=O)O)C(=O)O)cc2)[nH]c2nc(N)nc(N)c12 [Compound 1] |  |  | GI50 (PC-3): 0.0436 µM; GI50 (HT29): 0.16 µM; GI50 (MCF-7): > 100 µM; GI50 (K-562): 0.0295 µM; GI50 (HCT 15 [3]): 59.5 µM; pEC50 [2]: 6.72; GI50 (SF268): 74.7 µM; FPGS substrate activity [4]: reasonable; GI50 (HL-60 × (TB)): 0.0435 µM; GI50 (RPMI-8226): < 0.01 µM; GI50 (MOLT-4): < 0.01 µM; GI50 (60 tumor cell lines [5]): ≤ 0.1 µM; GI50 (SW-620 [6]): 0.124 µM; GI50 (CAKI-1): > 100 µM; GI50 (ACHN): 24.2 µM; GI50 (NCI-H460): 0.631 µM; GI50 (U251): 0.824 µM; GI50 (CCRF-CEM): 0.221 µM |
| CC(C)c1c(Sc2ccc(Cl)c(Cl)c2)[nH]c2nc(N)nc(N)c12 [Compound 27, 2,4-Diamino-5-isopropyl-6-(3′,4′-dichlorophenylsulfanyl)-7H-pyrrolo[2,3-d]pyrimidine] | < 5.64 | 0 | potency rank against T. gondii DHFR, in words (T. gondii DHFR [1]): among the six least potent compounds |
| CCCc1c(Sc2c(Cl)cccc2Cl)[nH]c2nc(N)nc(N)c12 [Compound 11, 2,4-Diamino-5-propyl-6-(2′,6′-dichlorophenylsulfanyl)-7H-pyrrolo[2,3-d]pyrimidine] | < 4.66 | 0 |  |
| CCCc1c(Sc2ccc3ccccc3c2)[nH]c2nc(N)nc(N)c12 [Compound 18, 2,4-Diamino-5-propyl-6-(2′-napthylsulfanyl)-7H-pyrrolo[2,3-d]pyrimidine] | < 4.92 | 0 |  |
| CC(C)c1c(Sc2c(Cl)cccc2Cl)[nH]c2nc(N)nc(N)c12 [Compound 19, 2,4-Diamino-5-isopropyl-6-(2′,6′-dichlorophenylsulfanyl)-7H-pyrrolo[2,3-d]pyrimidine] | < 5.66 | 0 |  |
| CCCc1c(Sc2ccc(OC)cc2)[nH]c2nc(N)nc(N)c12 [Compound 14, 2,4-Diamino-5-propyl-6-(4′-methoxyphenylsulfanyl)-7H-pyr-rolo[2,3-d]pyrimidine] | < 4.89 | 0 |  |
| COc1ccc(OC)c(Sc2[nH]c3nc(N)nc(N)c3c2C(C)C)c1 [Compound 23, 2,4-Diamino-5-isopropyl-6-(2′,5′-dimethoxyphenylsulfanyl)-7H-pyrrolo[2,3-d]pyrimidine] | < 5.64 | 0 | potency rank against T. gondii DHFR, in words (T. gondii DHFR [1]): among the six least potent compounds |
| CC(C)c1c(Sc2ccc3ccccc3c2)[nH]c2nc(N)nc(N)c12 [Compound 26, 2,4-Diamino-5-isopropyl-6-(2′-napthylsulfanyl)-7H-pyrrolo[2,3-d]pyrimidine] | < 5.62 | 0 |  |
| CC(C)c1c(Sc2ccccc2)[nH]c2nc(N)nc(N)c12 [Compound 21, 2,4-Diamino-5-isopropyl-6-(phenylsulfanyl)-7H-pyrrolo[2,3-d]pyrimidine] | < 5.57 | 0 |  |
| CCCc1c(Sc2cccc3ccccc23)[nH]c2nc(N)nc(N)c12 [Compound 17, 2,4-Diamino-5-propyl-6-(1′-napthylsulfanyl)-7H-pyrrolo[2,3-d]pyrimidine] | < 4.92 | 0 |  |
| COc1ccc(Sc2[nH]c3nc(N)nc(N)c3c2C(C)C)cc1OC [Compound 24, 2,4-Diamino-5-isopropyl-6-(3′,4′-dimethoxyphenylsulfanyl)-7H-pyrrolo[2,3-d]pyrimidine] | < 5.64 | 0 | potency rank against T. gondii DHFR, in words (T. gondii DHFR [1]): among the six least potent compounds |
| CC(C)c1c(Sc2cccc3ccccc23)[nH]c2nc(N)nc(N)c12 [Compound 25, 2,4-Diamino-5-isopropyl-6-(1′-napthylsulfanyl)-7H-pyrrolo[2,3-d]pyrimidine] | < 4.92 | 0 |  |
| Cc1cccc(C)c1Sc1[nH]c2nc(N)nc(N)c2c1C(C)C [Compound 20, 2,4-Diamino-5-isopropyl-6-(2′,6′-dimethylphenylsulfanyl)-7H-pyrrolo[2,3-d] pyrimidine] | < 4.89 | 0 |  |
| CCCc1c(Sc2c(C)cccc2C)[nH]c2nc(N)nc(N)c12 [Compound 12, 2,4-Diamino-5-propyl-6-(2′,6′-dimethylphenylsulfanyl)-7H-pyrrolo[2,3-d] pyrimidine] | < 4.62 | 0 |  |
| CCCc1c(Sc2ccc(C(=O)N[C@@H](CCC(=O)O)C(=O)O)cc2)[nH]c2nc(N)nc(N)c12 [Compound 3, N-[4-[(2,4-Diamino-5-propyl-7H-pyrrolo[2,3-d]pyrimidin-6-yl)sulfanyl]benzoyl]-L-glutamic Acid] |  |  | GI50 (SW-620 [7]): 1.21 µM; inhibition of T. gondii TS, in words (T. gondii TS): moderate inhibition; inhibition of E. coli TS, in words (E. coli TS): poor inhibitor; potency rank against T. gondii DHFR, in words (T. gondii DHFR [1]): three most potent compounds; inhibition of E. coli DHFR, in words (E. coli DHFR): good inhibitor; inhibition of hTS, in words (human TS): poor inhibitor; inhibition of hDHFR, in words (human DHFR): good inhibitor; inhibition of T. gondii DHFR, in words (T. gondii DHFR [8]): good inhibitor; GI50 (60 tumor cell lines [9]): < 1 µM; GI50 (60 tumor cell lines [9]; read-out: GI50 tumor cells in culture): ≤ 0.1 µM; GI50 (HCT 15 [10]): > 100 µM |
